Numbered stars: 1 amine (or outer) side, 2 acyl side, 3 side chain; on linkers, the order of the positions; unused ones are H or OH. Square brackets hold non-standard residues; d marks the D form. Peptide text beside a SMILES is read from it. * marks the point of attachment. β3hPhe(2R-OH) = O=C([C@H](O)[C@H](Cc1ccccc1)N[*:1])[*:2]; Benzoyl(4-COOH) = O=C(O)c1ccc(C(=O)*)cc1; Oxalyl = O=C(C(=O)[*:2])[*:1]; 4Amb = NCc1ccc(C(=O)O)cc1; 4Abz = Nc1ccc(C(=O)O)cc1; Orn = NCCC[C@H](N)C(=O)O; Dap = NC[C@H](N)C(=O)O
Target: T1, recombinant human BACE-1 (rhBACE-1) (Homo sapiens, UniProt P56817)
T1 construct: expressed as only an extracellular region (amino acid 1-460 residues) of recombinant human β-secretase; His tag (C); purchased R&D systems (Minneapolis, Minn.); host or cells: murine myeloma cell line NS0
Assay: BACE1 inhibitory activity, reverse phase HPLC quantitation of N-terminal fragment of fluorogenic substrate
Format: biochemical
Details: 1 μL of inhibitor solution in DMSO (100 μM) in 50 μL reaction; MES buffer pH 5.0; 37° C., 60 minutes
Source text: Experiment Regarding Measurement of BACE1 Inhibitory Activity
Enzyme Used in Measurement
As an enzyme having β-secretase activity, recombinant human BACE-1 (rhBACE-1) purchased from R&D systems (Minneapolis, Minn.) was used. rhBACE-1 is expressed as only an extracellular region (amino acid 1-460 residues) of recombinant human β-secretase, with a His tag at its carboxyl terminal in murine myeloma cell line, NS0. Purified secreted rhBACE1 is a mixture of a pro entity (about 75 kDa) and a mature entity (about 72 kDa).
Assessment of Enzyme Inhibitory Activity
Enzyme inhibitory activity of an inhibitor was assessed by quantitating an N-terminal fragment produced aftercleaving the substrate with BACE1 by reverse HPLC using (7-methoxycoumarin-4-yl)acetyl-[…]2,4-dinitrophenyl)-Arg-Arg-NH2 purchased from Peptide Institute (Osaka, Japan) as a substrate for BACE1. To 40 μL of 62.5 mM 2-(N-morpholino)ethansulfonic acid (MES)-CH3COOH—NaOH buffer (pH 5.0), were added 1 μL of a solution of an inhibitor diluted with DMSO (100 μM), 4 μL of rhBACE-1 (6.25 ng/μL), and 5 μL of an aqueous solution (50% DMSO) of 250 μM substrate (7-methoxycoumarin-4-yl)acetyl-[…]2,4-dinitrophenyl)-Arg-Arg-NH2 to initiate an enzyme reaction. After incubation at 37° C. for 60 minutes, 20 μL of 20% trichloroacetic acid was added to stop the reaction. And, inhibition % was calculated by measuring a fluorescent intensity of the N-terminal fragment (Ex, 328 nm; Em, 393 nm) using reverse phase HPLC (linear gradient of MeCN in aqueous TFA; flow rate, 1.0 mL/min).
BACE1 Inhibitory Activity
Enzyme inhibitory activity of an inhibitor was assessed by quantitating a N-terminal fragment produced after cleavage of a substrate with BACE1 by reverse phase HPLC using (7-methoxycoumarin-4-yl)acetyl-[…]2,4-dinitrophenyl)-Arg-Arg-NH2 purchased from Peptide Institute (Osaka, Japan) as a substrate for BACE1. Recombinant human BACE-1 purchased from R&D systems (Minneapolis, Minn.) was used. To 40 μL of 62.5 mM 2-(N-morpholino)ethansulfonic acid (MES)-CH3COOH—NaOH buffer (pH 5.0), were added 1 μL of a solution of an inhibitor diluted with DMSO (100 μM), 4 μL of BACE1 (6.25 ng/μL), and 5 μL of an aqueous solution (50% DMSO) of 250 μM substrate (7-methoxycoumarin-4-yl)acetyl-[…]2,4-dinitrophenyl)-Arg-Arg-NH2 to initiate an enzyme reaction. After incubation at 37° C. for 60 minutes, 20 μL of 20% trichloroacetic acid was added to stop a reaction. Inhibition % was calculated by measuring a fluorescent intensity of the N-terminal fragment (Ex, 328 nm; Em, 393 nm) using reverse phase HPLC (linear gradient of MeCN in aqueous TFA; flow rate, 1.0 mL/min).

T1 sequence (P56817 22-460 limits assumed): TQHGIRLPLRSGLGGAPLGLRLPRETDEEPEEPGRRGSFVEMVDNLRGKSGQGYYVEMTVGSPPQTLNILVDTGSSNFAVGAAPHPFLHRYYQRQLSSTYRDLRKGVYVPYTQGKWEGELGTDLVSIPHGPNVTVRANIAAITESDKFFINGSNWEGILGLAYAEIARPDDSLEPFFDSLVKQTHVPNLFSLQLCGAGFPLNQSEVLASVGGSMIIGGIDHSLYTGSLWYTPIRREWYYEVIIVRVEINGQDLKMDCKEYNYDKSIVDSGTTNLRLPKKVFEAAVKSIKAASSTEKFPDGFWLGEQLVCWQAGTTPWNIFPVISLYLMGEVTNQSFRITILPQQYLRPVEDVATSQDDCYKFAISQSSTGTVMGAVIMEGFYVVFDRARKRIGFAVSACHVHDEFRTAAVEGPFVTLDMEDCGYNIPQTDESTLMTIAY

Molecule: CC(C)C[C@H](NC(=O)[C@@H](NC(=O)[C@@H](N)CNC(=O)c1ccco1)C(C)C)C(=O)N[C@@H](Cc1ccccc1)[C@@H](O)C(=O)Nc1cccc(C(=O)O)c1 [Example 174]
- inhibition at 2 µM: 81.8%

Molecule: H-Glu-Val-Leu-Pns-Ala-Glu-Glu-Phe-OH (H-EVL[β3hPhe(2R-OH)]AEEF-OH; SMILES CC(C)C[C@H](NC(=O)[C@@H](NC(=O)[C@@H](N)CCC(=O)O)C(C)C)C(=O)N[C@@H](Cc1ccccc1)[C@@H](O)C(=O)N[C@@H](C)C(=O)N[C@@H](CCC(=O)O)C(=O)N[C@@H](CCC(=O)O)C(=O)N[C@@H](Cc1ccccc1)C(=O)O) [Example 27]
- Activity (BACE1 inhibition %): 78.43%

Molecule: CC(C)C[C@H](NC(=O)[C@@H](NC(=O)[C@@H](N)CNC(=O)C(=O)O)C(C)C)C(=O)N[C@@H](Cc1ccccc1)[C@@H](O)C(=O)N[C@@H](CC(=O)O)C(=O)Nc1ccc(C(=O)O)cc1 [Example 71] (H-[Dap](Oxalyl)VL[β3hPhe(2R-OH)]D[4Abz]-OH)
- inhibition at 2 µM: 97.9%

Molecule: CC(C)C[C@H](NC(=O)[C@@H](NC(=O)[C@@H](N)CNC(=O)c1ccc[nH]1)C(C)C)C(=O)N[C@@H](Cc1ccccc1)[C@@H](O)C(=O)Nc1cccc(C(=O)O)c1 [Example 143]
- inhibition at 2 µM: 69%

Molecule: CC(C)C[C@H](NC(=O)[C@@H](NC(=O)[C@@H](N)CNC(=O)C(=O)O)C(C)C)C(=O)N[C@@H](Cc1ccccc1)[C@@H](O)C(=O)Nc1cccc(C(=O)O)c1 [Example 69]
- inhibition at 2 µM: 98.4%

Molecule: CC(C)C[C@H](NC(=O)[C@@H](NC(=O)[C@@H](N)CCC(=O)O)C(C)C)C(=O)N[C@@H](Cc1ccccc1)[C@@H](O)C(=O)Nc1ccc(Cl)c(C(=O)O)c1 [Example 83]
- inhibition at 2 µM: 80.1%

Molecule: H-Glu-Val-Leu-Pns-Gly-Ala-Glu-Phe-OH (H-EVL[β3hPhe(2R-OH)]GAEF-OH; SMILES CC(C)C[C@H](NC(=O)[C@@H](NC(=O)[C@@H](N)CCC(=O)O)C(C)C)C(=O)N[C@@H](Cc1ccccc1)[C@@H](O)C(=O)NCC(=O)N[C@@H](C)C(=O)N[C@@H](CCC(=O)O)C(=O)N[C@@H](Cc1ccccc1)C(=O)O) [Example 42]
- Activity (BACE1 inhibition %): 56.72%

Molecule: CNC(=O)c1cc(NC(=O)[C@H](O)[C@H](Cc2ccccc2)NC(=O)[C@H](CC(C)C)NC(=O)[C@@H](NC(=O)[C@@H](N)CCC(=O)O)C(C)C)cc(C(=O)NC)c1 [Example 180]
- inhibition at 2 µM: 51.4%

Molecule: CC(C)C[C@H](NC(=O)[C@@H](NC(=O)[C@@H](N)CCCNC(=O)C(=O)O)C(C)C)C(=O)N[C@@H](Cc1ccccc1)[C@@H](O)C(=O)N[C@@H](CC(=O)O)C(=O)N[C@@H](C)C(=O)N[C@@H](CCC(=O)O)C(=O)O [Example 101] (H-[Orn](Oxalyl)VL[β3hPhe(2R-OH)]DAE-OH)
- inhibition at 2 µM: 56.1%

Molecule: CC(C)C[C@H](NC(=O)[C@@H](NC(=O)[C@@H](N)CCC(=O)O)C(C)C)C(=O)N[C@@H](Cc1ccccc1)[C@@H](O)C(=O)N[C@@H](CC(=O)O)C(=O)N[C@@H](C)C(=O)Nc1ccc(C(=O)O)cc1 [Example 93] (H-EVL[β3hPhe(2R-OH)]DA[4Abz]-OH)
- inhibition at 2 µM: 64.8%

Molecule: CSC[C@H](NC(=O)[C@@H](NC(=O)[C@@H](N)CCC(=O)O)C(C)C)C(=O)N[C@@H](Cc1ccccc1)[C@@H](O)C(=O)Nc1cccc(C(=O)O)c1 [Example 131]
- inhibition at 2 µM: 74.1%

Molecule: CC(C)C[C@H](NC(=O)[C@@H](NC(=O)[C@@H](N)CNC(=O)c1nnn[nH]1)C(C)C)C(=O)N[C@@H](Cc1ccccc1)[C@@H](O)C(=O)Nc1cccc(-c2nnn[nH]2)c1 [Example 185]
- inhibition at 100 µM (stock): 100%

Molecule: CC(C)C[C@H](NC(=O)[C@@H](NC(=O)[C@@H](N)CCC(=O)O)C(C)C)C(=O)N[C@@H](Cc1ccccc1)[C@@H](O)C(=O)Nc1cc(Cl)cc(Cl)c1 [Example 156]
- inhibition at 100 µM (stock): 78.3%

Molecule: CC(C)C[C@H](NC(=O)[C@@H](NC(=O)[C@@H](N)CNC(=O)c1nnn[nH]1)C(C)C)C(=O)N[C@@H](Cc1ccccc1)[C@@H](O)C(=O)Nc1cc(C(=O)O)cc(C(=O)O)c1 [Example 127]
- inhibition at 2 µM: 100%

Molecule: CC(C)C[C@H](NC(=O)[C@@H](NC(=O)[C@@H](N)CNC(=O)c1ccc(C(=O)O)cc1)C(C)C)C(=O)N[C@@H](Cc1ccccc1)[C@@H](O)C(=O)N[C@@H](CC(=O)O)C(=O)N[C@@H](C)C(=O)N[C@@H](CCC(=O)O)C(=O)O [Example 81] (H-[Dap](Benzoyl(4-COOH))VL[β3hPhe(2R-OH)]DAE-OH)
- inhibition at 2 µM: 82.9%

Molecule: H-Glu-Val-Leu-Pns-Asp-Ala-Val-Phe-OH (H-EVL[β3hPhe(2R-OH)]DAVF-OH; SMILES CC(C)C[C@H](NC(=O)[C@@H](NC(=O)[C@@H](N)CCC(=O)O)C(C)C)C(=O)N[C@@H](Cc1ccccc1)[C@@H](O)C(=O)N[C@@H](CC(=O)O)C(=O)N[C@@H](C)C(=O)N[C@H](C(=O)N[C@@H](Cc1ccccc1)C(=O)O)C(C)C) [Example 29]
- Activity (BACE1 inhibition %): 57.47%

Molecule: CC(C)C[C@H](NC(=O)[C@@H](NC(=O)[C@@H](N)CCC(=O)O)C(C)C)C(=O)N[C@@H](Cc1ccccc1)[C@@H](O)C(=O)N[C@@H](CC(=O)O)C(=O)Nc1ccc(C(=O)O)cc1 [Example 76] (H-EVL[β3hPhe(2R-OH)]D[4Abz]-OH)
- inhibition at 2 µM: 89.5%

Molecule: H-Glu-Val-Leu-Pns-Asp-Ala-Glu-Phe-OH (H-EVL[β3hPhe(2R-OH)]DAEF-OH; SMILES CC(C)C[C@H](NC(=O)[C@@H](NC(=O)[C@@H](N)CCC(=O)O)C(C)C)C(=O)N[C@@H](Cc1ccccc1)[C@@H](O)C(=O)N[C@@H](CC(=O)O)C(=O)N[C@@H](C)C(=O)N[C@@H](CCC(=O)O)C(=O)N[C@@H](Cc1ccccc1)C(=O)O) [Example 7]
- Activity (BACE1 inhibition %): 89.65%

Molecule: Cc1cccc(C(=O)NC[C@H](N)C(=O)N[C@H](C(=O)N[C@@H](CC(C)C)C(=O)N[C@@H](Cc2ccccc2)[C@@H](O)C(=O)Nc2cccc(C(=O)O)c2)C(C)C)c1O [Example 147]
- inhibition at 2 µM: 59.5%

Molecule: CC(C)C[C@H](NC(=O)[C@@H](NC(=O)[C@H](CN)NC(=O)C(=O)O)C(C)C)C(=O)N[C@@H](Cc1ccccc1)[C@@H](O)C(=O)Nc1cccc(C(=O)O)c1 [Example 77]
- inhibition at 2 µM: 87.9%

Molecule: CC(C)C[C@H](NC(=O)[C@@H](NC(=O)[C@@H](N)CCC(=O)O)C(C)C)C(=O)N[C@@H](Cc1ccccc1)[C@@H](O)C(=O)N[C@@H](CC(=O)O)C(=O)N[C@@H](Cc1ccccc1)C(=O)N[C@@H](CCC(=O)O)C(=O)N[C@@H](Cc1ccccc1)C(=O)O [Example 80] (H-EVL[β3hPhe(2R-OH)]DFEF-OH)
- inhibition at 2 µM: 83.2%

Molecule: CC(C)C[C@H](NC(=O)[C@@H](NC(=O)[C@@H](N)CCC(=O)O)C(C)C)C(=O)N[C@@H](Cc1ccccc1)[C@@H](O)C(=O)N[C@@H](CC(=O)O)C(=O)N[C@@H](C)C(=O)NCc1ccc(C(=O)O)cc1 [Example 108] (H-EVL[β3hPhe(2R-OH)]DA[4Amb]-OH)
- inhibition at 2 µM: 51.3%

Molecule: H-Glu-Val-Leu-Pns-Asp-Ala-Gln-Phe-OH (H-EVL[β3hPhe(2R-OH)]DAQF-OH; SMILES CC(C)C[C@H](NC(=O)[C@@H](NC(=O)[C@@H](N)CCC(=O)O)C(C)C)C(=O)N[C@@H](Cc1ccccc1)[C@@H](O)C(=O)N[C@@H](CC(=O)O)C(=O)N[C@@H](C)C(=O)N[C@@H](CCC(N)=O)C(=O)N[C@@H](Cc1ccccc1)C(=O)O) [Example 28]
- Activity (BACE1 inhibition %): 55.88%

Molecule: H-Glu-Val-Leu-Pns-Ala-Phe-Glu-Phe-OH (H-EVL[β3hPhe(2R-OH)]AFEF-OH; SMILES CC(C)C[C@H](NC(=O)[C@@H](NC(=O)[C@@H](N)CCC(=O)O)C(C)C)C(=O)N[C@@H](Cc1ccccc1)[C@@H](O)C(=O)N[C@@H](C)C(=O)N[C@@H](Cc1ccccc1)C(=O)N[C@@H](CCC(=O)O)C(=O)N[C@@H](Cc1ccccc1)C(=O)O) [Example 26]
- Activity (BACE1 inhibition %): 60.23%

Molecule: CC(C)[C@H](NC(=O)[C@@H](N)CCC(=O)O)C(=O)N[C@H](C(=O)N[C@@H](Cc1ccccc1)[C@@H](O)C(=O)Nc1cccc(C(=O)O)c1)c1ccccc1 [Example 164]
- inhibition at 2 µM: 64.1%

Molecule: CC(C)C[C@H](NC(=O)[C@@H](NC(=O)[C@@H](N)CCC(=O)O)C(C)C)C(=O)N[C@@H](Cc1ccccc1)[C@@H](O)C(=O)N[C@H](C(=O)N[C@@H](C)C(=O)N[C@@H](CCC(=O)O)C(=O)N[C@@H](Cc1ccccc1)C(=O)O)C(C)C [Example 96] (H-EVL[β3hPhe(2R-OH)]VAEF-OH)
- inhibition at 2 µM: 59.2%
